Reference: patent publication US11819507B2, “Cholecalciferol sulfate salts and their use for the treatment of vitamin D deficiency” (CFSO GMBH, priority 2015, dated 2023)

Assay: Applying the transdermal formulation of Example 8 to skin; residue on the skin checked by TLC
Assay type: in vivo
Settings: about 2 ml of the formulation of Example 8 applied in a thin layer, allowed to penetrate for 4 hours; skin wiped with 96% ethanol cotton pad, extract examined by TLC
Procedure: About 2 ml of the formulation prepared in Example 8 were applied in a thin layer to the skin of a subject and allowed to penetrate for 4 hours. Subsequently, the skin was well wiped using a sterile cotton pad soaked with 96% ethanol. The cotton pad was boiled with additional 96% ethanol and squeezed. The ethanol was evaporated on a rotary evaporator, and a small amount of chloroform-methanol (9:1 Vol./Vol.) mixture was added to the flask.

C=C1CCC(OS(=O)(=O)O)CC1=CC=C1CCCC2(C)C1CCC2C(C)CCCC(C)C.NCCCCC(N)C(=O)O [L-lysine cholecalciferol sulfate]
L-lysine cholecalciferol sulfate remaining on the skin (TLC on silica gel): substantially no
